Measurements taken from ChEMBL document CHEMBL3734705, “Synthesis and in vitro cytotoxicity of novel C-12 substituted-14-deoxy-andrographolide derivatives as potent anti-cancer agents” (2015).

Legend:
[1] = Cytotoxicity against human HOP92 cells after 48 hrs by SRB assay; format: functional; conditions: HOP-92, 48 h
M14 [2] = assay: Cytotoxicity against human M14 cells assessed as growth level at 10 uM after 48 hrs by SRB assay; format: functional
NCI-H322M [3] = assay: Cytotoxicity against human NCI-H322M cells assessed as growth level at 10 uM after 48 hrs by SRB assay; format: functional
[4] = Cytotoxicity against human COLO205 cells assessed as growth level at 10 uM after 48 hrs by SRB assay; format: functional, COLO 205
M14 [5] = assay: Cytotoxicity against human M14 cells after 48 hrs by SRB assay; format: functional; conditions: M14, 48 h
[6] = Cytotoxicity against human NCI-ADR-RES cells after 48 hrs by SRB assay; format: functional
[7] = Cytotoxicity against human HOP92 cells assessed as growth level at 10 uM after 48 hrs by SRB assay; format: functional, HOP-92
[8] = Cytotoxicity against human UACC62 cells after 48 hrs by SRB assay; format: functional; conditions: UACC-62, 48 h
NCI-H226 [9] = assay: Cytotoxicity against human NCI-H226 cells assessed as growth level at 10 uM after 48 hrs by SRB assay; format: functional
MCF7 [10] = assay: Cytotoxicity against human MCF7 cells after 48 hrs by SRB assay; format: functional; conditions: MCF7, 48 h
ACHN [11] = assay: Cytotoxicity against human ACHN cells after 48 hrs by SRB assay; format: functional
SK-MEL-28 = assay: Cytotoxicity against human SK-MEL-28 cells assessed as growth level at 10 uM after 48 hrs by SRB assay; format: functional
[12] = Cytotoxicity against human UO31 cells assessed as growth level at 10 uM after 48 hrs by SRB assay; format: functional, UO-31
[13] = Cytotoxicity against human SF268 cells after 48 hrs by SRB assay; format: functional; conditions: SF-268, 48 h
[14] = Cytotoxicity against human SNB19 cells after 48 hrs by SRB assay; format: functional; conditions: SNB-19, 48 h
SK-MEL-5 = assay: Cytotoxicity against human SK-MEL-5 cells after 48 hrs by SRB assay; format: functional; conditions: SK-MEL-5, 48 h
MCF7 [15] = assay: Cytotoxicity against human MCF7 cells assessed as growth level at 10 uM after 48 hrs by SRB assay; format: functional
[16] = Cytotoxicity against human SF295 cells after 48 hrs by SRB assay; format: functional; conditions: SF-295, 48 h
[17] = Cytotoxicity against human SNB19 cells assessed as growth level at 10 uM after 48 hrs by SRB assay; format: functional, SNB-19
A498 [18] = assay: Cytotoxicity against human A498 cells after 48 hrs by SRB assay; format: functional; conditions: A498, 48 h; for CC50: read-out: LC50 (the source's name)
NCI-H460 = assay: Cytotoxicity against human NCI-H460 cells after 48 hrs by SRB assay; format: functional; conditions: NCI-H460, 48 h; for CC50: read-out: LC50 (the source's name)
[19] = Cytotoxicity against human BT549 cells assessed as growth level at 10 uM after 48 hrs by SRB assay; format: functional, BT-549
NCI-H226 [20] = assay: Cytotoxicity against human NCI-H226 cells after 48 hrs by SRB assay; format: functional; conditions: NCI-H226, 48 h
[21] = Cytotoxicity against human UACC62 cells assessed as growth level at 10 uM after 48 hrs by SRB assay; format: functional, UACC-62
[22] = Cytotoxicity against human PC3 cells assessed as growth inhibition at 10 uM after 48 hrs by SRB assay; format: functional; conditions: PC-3, 48 h, read-out: GI
[23] = Cytotoxicity against human TK10 cells assessed as growth inhibition at 10 uM after 48 hrs by SRB assay; format: functional; conditions: TK-10, 48 h, read-out: GI
[24] = Cytotoxicity against human NCI-ADR-RES cells assessed as growth inhibition at 10 uM after 48 hrs by SRB assay; format: functional; conditions: read-out: GI
[25] = Cytotoxicity against human OVCAR4 cells assessed as growth inhibition at 10 uM after 48 hrs by SRB assay; format: functional; conditions: OVCAR-4, 48 h, read-out: GI
ACHN [26] = assay: Cytotoxicity against human ACHN cells assessed as growth inhibition at 10 uM after 48 hrs by SRB assay; format: functional; conditions: read-out: GI
[27] = Cytotoxicity against human RPMI8226 cells assessed as growth inhibition at 10 uM after 48 hrs by SRB assay; format: functional; conditions: RPMI-8226, 48 h, read-out: GI
A498 [28] = assay: Cytotoxicity against human A498 cells assessed as growth inhibition at 10 uM after 48 hrs by SRB assay; format: functional; conditions: A498, 48 h, read-out: GI
M14 [29] = assay: Cytotoxicity against human M14 cells assessed as growth inhibition at 10 uM after 48 hrs by SRB assay; format: functional; conditions: M14, 48 h, read-out: GI
NCI-H322M [30] = assay: Cytotoxicity against human NCI-H322M cells assessed as growth inhibition at 10 uM after 48 hrs by SRB assay; format: functional; conditions: read-out: GI
[31] = Cytotoxicity against human UO31 cells assessed as growth inhibition at 10 uM after 48 hrs by SRB assay; format: functional; conditions: UO-31, 48 h, read-out: GI
[32] = Cytotoxicity against human SF268 cells assessed as growth inhibition at 10 uM after 48 hrs by SRB assay; format: functional; conditions: SF-268, 48 h, read-out: GI
CCRF-CEM = assay: Cytotoxicity against human CCRF-CEM cells assessed as growth inhibition at 10 uM after 48 hrs by SRB assay; format: functional; conditions: read-out: GI
HT-29 = assay: Cytotoxicity against human HT-29 cells assessed as growth inhibition at 10 uM after 48 hrs by SRB assay; format: functional; conditions: HT-29, 48 h, read-out: GI
A549 = assay: Cytotoxicity against human A549 cells assessed as growth inhibition at 10 uM after 48 hrs by SRB assay; format: functional; conditions: A549, 48 h, read-out: GI
SN12C = assay: Cytotoxicity against human SN12C cells assessed as growth inhibition at 10 uM after 48 hrs by SRB assay; format: functional; conditions: read-out: GI
[33] = Cytotoxicity against human UACC62 cells assessed as growth inhibition at 10 uM after 48 hrs by SRB assay; format: functional; conditions: UACC-62, 48 h, read-out: GI

SMILES: C=C1CC[C@@H]2[C@](C)(COC(C)=O)[C@H](OC(C)=O)CC[C@@]2(C)[C@@H]1CC(Nc1ccc(S(=O)(=O)NC(C)=O)cc1)C1=CCOC1=O (mixture of isomers)
- GI50 [1]: 6.5 µM
- LC50 [1]: 35.5 µM
- TGI [1]: 15.9 µM
- Activity (M14 [2]): -35.08%
- Activity (NCI-H322M [3]): 35.29%
- Activity [4]: -32.73%
- GI50 (M14 [5]): 2.86 µM
- LC50 (M14 [5]): 45.8 µM
- TGI (M14 [5]): 11.9 µM
- GI50 [6]: 2.51 µM
- LC50 [6]: > 75 µM
- TGI [6]: 9.14 µM
- Activity [7]: 20.95%
- GI50 [8]: 2.59 µM
- LC50 [8]: 32 µM
- TGI [8]: 10.8 µM
- Activity (NCI-H226 [9]): -52.34%
- GI50 (MCF7 [10]): 1.92 µM
- LC50 (50% lethal concentration) (MCF7 [10]): > 75 µM
- TGI (MCF7 [10]): 11.3 µM
- GI50 (ACHN [11]): 7.54 µM
- LC50 (ACHN [11]): 36.3 µM
- TGI (ACHN [11]): 16.5 µM
- Activity (SK-MEL-28): -36.62%
- Activity [12]: -58.46%
- GI50 [13]: 8.78 µM
- LC50 [13]: 47.9 µM
- TGI [13]: 20.5 µM
- GI50 [14]: 8.19 µM
- LC50 (concentration killing 50% of cells) [14]: 43.7 µM
- TGI [14]: 18.9 µM
- GI50 (SK-MEL-5): 3.22 µM
- LC50 (concentration killing 50% of cells) (SK-MEL-5): 30.7 µM
- TGI (SK-MEL-5): 11.5 µM
- Activity (MCF7 [15]): -33.6%
- GI50 [16]: 11.5 µM
- LC50 [16]: 42.2 µM
- TGI [16]: 22 µM
- Activity [17]: 23.04%
- GI50 (A498 [18]): 10.3 µM
- TGI (A498 [18]): 20.1 µM
- CC50 (A498 [18]): 39.3 µM
- GI50 (NCI-H460): 6.72 µM
- TGI (NCI-H460): 17.9 µM
- CC50 (NCI-H460): 44.7 µM
- Activity [19]: -62.63%
- GI50 (NCI-H226 [20]): 1.92 µM
- LC50 (NCI-H226 [20]): > 75 µM
- TGI (NCI-H226 [20]): 4.62 µM
- Activity [21]: -12.47%

SMILES: C=C1CC[C@@H]2[C@](C)(COC(C)=O)[C@H](OC(C)=O)CC[C@@]2(C)[C@@H]1CC(Sc1ccccc1)C1=CCOC1=O (mixture of isomers)
- GI50 [1]: 2.71 µM
- LC50 [1]: > 100 µM
- TGI [1]: 8.71 µM
- Activity (M14 [2]): -4.19%
- Activity (NCI-H322M [3]): 67.11%
- Activity [4]: -68.06%
- GI50 (M14 [5]): 1.47 µM
- LC50 (M14 [5]): 9.23 µM
- TGI (M14 [5]): 3.69 µM
- GI50 [6]: 2.1 µM
- LC50 [6]: > 100 µM
- TGI [6]: 11 µM
- Activity [7]: 24.5%
- GI50 [8]: 1.3 µM
- LC50 [8]: 8.07 µM
- TGI [8]: 3.24 µM
- Activity (NCI-H226 [9]): -9.88%
- GI50 (MCF7 [10]): 0.53 µM
- LC50 (50% lethal concentration) (MCF7 [10]): 7.27 µM
- TGI (MCF7 [10]): 2.35 µM
- GI50 (ACHN [11]): 1.34 µM
- LC50 (ACHN [11]): 6.01 µM
- TGI (ACHN [11]): 2.84 µM
- Activity (SK-MEL-28): 6.34%
- Activity [12]: 35.65%
- GI50 [13]: 1.71 µM
- LC50 [13]: 7.39 µM
- TGI [13]: 3.55 µM
- GI50 [14]: 1.78 µM
- LC50 (concentration killing 50% of cells) [14]: 7.97 µM
- TGI [14]: 3.77 µM
- GI50 (SK-MEL-5): 1.42 µM
- LC50 (concentration killing 50% of cells) (SK-MEL-5): 5.6 µM
- TGI (SK-MEL-5): 2.82 µM
- Activity (MCF7 [15]): 2.14%
- GI50 [16]: 4.12 µM
- LC50 [16]: > 100 µM
- TGI [16]: 27.3 µM
- Activity [17]: 51.79%
- GI50 (A498 [18]): 2.3 µM
- TGI (A498 [18]): 14 µM
- CC50 (A498 [18]): 59.2 µM
- GI50 (NCI-H460): 2.24 µM
- TGI (NCI-H460): 6.03 µM
- CC50 (NCI-H460): > 100 µM
- Activity [19]: -22.62%
- GI50 (NCI-H226 [20]): 2.3 µM
- LC50 (NCI-H226 [20]): 39.4 µM
- TGI (NCI-H226 [20]): 5.98 µM
- Activity [21]: -1.75%

SMILES: C=C1CC[C@@H]2[C@](C)(CO)[C@H](O)CC[C@@]2(C)[C@@H]1C/C=C1/C(=O)OC[C@H]1O [ANDROGRAPHOLIDE]
- inhibition of growth at 10 µM [22]: 6.6%
- inhibition of growth at 10 µM [23]: 2.51%
- Activity (M14 [2]): 84.88%
- Activity (NCI-H322M [3]): 92.74%
- Activity [4]: 94.9%
- inhibition of growth at 10 µM [24]: 16.5%
- inhibition of growth at 10 µM [25]: 17.1%
- Activity [7]: 107.7%
- inhibition of growth at 10 µM (ACHN [26]): 10.2%
- inhibition of growth at 10 µM [27]: 16.7%
- Activity (NCI-H226 [9]): 91.74%
- inhibition of growth at 10 µM (A498 [28]): 12.2%
- inhibition of growth at 10 µM (M14 [29]): 15.1%
- inhibition of growth at 10 µM (NCI-H322M [30]): 7.26%
- inhibition of growth at 10 µM [31]: 10.4%
- Activity (SK-MEL-28): 95.46%
- Activity [12]: 89.6%
- inhibition of growth at 10 µM [32]: 2.34%
- Activity (MCF7 [15]): 57.55%
- inhibition of growth at 10 µM (CCRF-CEM): 76.5%
- inhibition of growth at 10 µM (HT-29): 73%
- inhibition of growth at 10 µM (A549): 12.2%
- Activity [17]: 88.03%
- inhibition of growth at 10 µM (SN12C): 18.3%
- Activity [19]: 87.11%
- Activity [21]: 69.92%
- inhibition of growth at 10 µM [33]: 30.1%
